Entries after “also recorded” stand apart in the source; their conditions may differ. Values belong to the molecule of their own block, whether it stands above or below them. Residues, ends and D or L forms follow the SMILES beside them. *: point of attachment. Biotin = O=C1N[C@H]2[C@H](CS[C@H]2CCCCC(=O)*)N1; Ahx = NCCCCCC(=O)O
Experiments:
GST-UbcH10 [1] = biological target: T1, GST-UbcH10 (Homo sapiens, UniProt O00762); experiment: ELISA binding of biotinylated peptides to coated GST-UbcH10; details: for binding to UbcH10, in words: ELISA on recombinant GST-UbcH10, biotinylated peptides; for Kd / KD (µM): ELISA, wells coated overnight at 4°C with 100 µg/ml GST-UbcH10 in PBS 1X, 1 mM TCEP, biotinylated peptides at 2.2, 11, 22, 44, 108 µM in PBS 1X (1 mM TCEP for U1 and ScrU1), streptavidin-HRP, OPD, read at 490 nm, GraphPad Prism
T1 construct: made in house; host or cells: E. coli BL21 (DE3) RP
T1 sequence (O00762 1-179): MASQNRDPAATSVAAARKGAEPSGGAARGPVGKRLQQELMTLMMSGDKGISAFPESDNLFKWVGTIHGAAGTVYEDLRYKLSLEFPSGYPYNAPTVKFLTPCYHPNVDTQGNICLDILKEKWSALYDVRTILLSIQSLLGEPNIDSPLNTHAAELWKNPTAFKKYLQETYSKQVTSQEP
Method: The PCR product was cloned into pGEX-4T1 expression vector (GE Healthcare), leading to a protein with a cleavable N-terminal GST tag (GST-UbcH10). E. coli BL21 (DE3) RP strain was transformed with the recombinant plasmid for GST-UbcH10. Overnight cultures were used to inoculate 500 ml LB medium containing 50 µg/ml ampicillin, and protein induction was performed by the addition of 1 mM IPTG at 22°C when an OD600 value of 0.7 was reached. After approximately 16 h the cells were harvested and the proteins were isolated by sonicating cell pellets resuspended in 30 ml PBS1X in the presence of an EDTA free protease inhibitor cocktail (Roche Diagnostics). The crude cell extract was cleared by centrifugation at 18000 rpm and the supernatant was loaded onto a 1 ml GST-trap column connected to AKTA FPLC system (GE-Healthcare) equilibrated with binding buffer PBS1X. After washing with ten volumes of binding buffer, a single elution step was performed with 50 mM TrisHCl, 10 mM reduced glutathione. The fractions containing GST-UbcH10 were pooled and extensively dialyzed against PBS1X at 4°C. The homogeneity of the protein was tested by SDS–PAGE and mass spectrometry.
Wells were coated overnight at 4°C with 100 µg/ml GST-UbcH10 in PBS 1X, 1 mM TCEP, in the presence of an EDTA free protease inhibitor cocktail (Roche Diagnostics). Binding step was performed with different concentrations of biotinylated peptides L1, L2, ScrL2, U1, ScrU1, S2 (2.2, 11, 22, 44, 108 µM) in PBS 1X (with 1 mM TCEP for U1 and ScrU1). A blocking solution 1% BSA in PBS 1X, 0.05% Tween-20 was used. Washes were executed with PBS 1X, 0.05% Tween-20. To verify the interaction a 1∶10000 dilution of horseradish peroxidase-conjugated streptavidin (Sigma Aldrich) in 0.3% BSA, PBS 1X was incubated for 1 hour. The colorimetric reaction was carried out with SIGMA-FAST OPD reagent (Sigma Aldrich), according to the manufacturer's instructions. Finally, readings were performed at 490 nm on a Model680 MicroplateReader (Bio-Rad, Hercules, CA-USA), and data were recorded by Microplate Manager 5.2 program and elaborated by GraphPad Prism program. Negative control experiments with the fusion tag GST in coating were performed in the same conditions described above.
On the basis of the 3D model of the quaternary complex, we have designed six peptides as molecular probes in order to calibrate their ability to interfere the binding of UbcH10. This strategy was motivated by two main reasons. First, the identification of short peptides that mediate protein-protein interaction seemed a priori effective for disrupting the protein-protein recognition and binding. While other strategies, i.e. introduction of specific mutations, may also be envisaged, it is unclear whether single-point mutants might lead to a significant destabilization of the complex or even to impede the formation of the quaternary complex. Second, since our ultimate goal is the design of compounds that might disrupt the ubiquitilation process, testing a series of suitably chosen short peptides represents a valuable proof-of-concept for supporting the potential therapeutic effect of peptidomimetics. Specifically, the peptides were designed to examine the capability of hUbA1 stretches that contribute to the protein-protein interface with UbcH10 (Figure S7). In particular, we have designed two peptides per interface, which will be denoted S for SCCH region, L for cross loop, and U for UFD (Table 4). In the UFD region peptides U1 and U2 were selected to test the relevance of the acidic residues in mediating the binding of the UbcH10 H1 helix. […] Finally, peptides L1 and L2 were chosen to explore the role of the cross loop region in assisting the interaction with UbcH10. All the peptides were synthesized as biotinylated derivatives by solid phase method and purified by RP-HPLC. Unfortunately, S1 and U2 were insoluble and so not testable in binding assays. […]

[2] = Solubility of the synthesized peptides (testability in binding assays); format: physicochemical; details: for Solubility: biotinylated peptide, not testable in binding assays; for solubility, in words: biotinylated peptides
From the text: On the basis of the 3D model of the quaternary complex, we have designed six peptides as molecular probes in order to calibrate their ability to interfere the binding of UbcH10. This strategy was motivated by two main reasons. First, the identification of short peptides that mediate protein-protein interaction seemed a priori effective for disrupting the protein-protein recognition and binding. While other strategies, i.e. introduction of specific mutations, may also be envisaged, it is unclear whether single-point mutants might lead to a significant destabilization of the complex or even to impede the formation of the quaternary complex. Second, since our ultimate goal is the design of compounds that might disrupt the ubiquitilation process, testing a series of suitably chosen short peptides represents a valuable proof-of-concept for supporting the potential therapeutic effect of peptidomimetics. Specifically, the peptides were designed to examine the capability of hUbA1 stretches that contribute to the protein-protein interface with UbcH10 (Figure S7). In particular, we have designed two peptides per interface, which will be denoted S for SCCH region, L for cross loop, and U for UFD (Table 4). In the UFD region peptides U1 and U2 were selected to test the relevance of the acidic residues in mediating the binding of the UbcH10 H1 helix. […] Finally, peptides L1 and L2 were chosen to explore the role of the cross loop region in assisting the interaction with UbcH10. All the peptides were synthesized as biotinylated derivatives by solid phase method and purified by RP-HPLC. Unfortunately, S1 and U2 were insoluble and so not testable in binding assays. The ability of the soluble peptides to bind recombinant GST-UbcH10 was checked by ELISA, utilizing GST as control (data not shown).

GST-UbcH10 [3] = biological target: T2, GST-UbcH10 (UniProt O00762 1-179); experiment: ELISA; wells coated overnight at 4°C with 100 µg/ml GST-UbcH10 in PBS, 1 mM TCEP; biotinylated peptides at 2.2, 11, 22, 44, 108 µM in PBS (1 mM TCEP for U1 and ScrU1); detection with streptavidin-HRP, reading at 490 nm; apparent KD; details: both partners purified
T2 construct: UbcH10, a Ubiquitin Conjugation Enzyme (E2); PCR product cloned into pGEX-4T1; The GST tag is cleavable but the fusion GST-UbcH10 was coated on the wells; PDB 1I7K (used only for modelling) lacks the first 30 residues and has Ser114; nothing says that the ELISA construct has these limits; also called E2; recombinant GST-UbcH10; source: E. coli BL21 (DE3) RP, purified (GST-trap column, dialysed …)
T2 sequence (looked up): T1 sequence (O00762 1-179)

binding to UbcH10, in words (GST-UbcH10 [1]): very poor binding
Kd (GST-UbcH10 [1]): > 80 µM
Molecule: C[C@@H](O)[C@H](NC(=O)[C@H](CCCCN)NC(=O)[C@H](CO)NC(=O)[C@@H]1CCCN1C(=O)[C@H](CC(=O)O)NC(=O)[C@H](CO)NC(=O)CCCCCNC(=O)CCCC[C@@H]1SC[C@@H]2NC(=O)N[C@@H]21)C(=O)N[C@@H](CO)C(=O)N[C@@H](CCC(=O)O)C(=O)N[C@@H](Cc1ccc(O)cc1)C(=O)N[C@@H](CCC(N)=O)C(=O)N1CCC[C@H]1C(=O)N[C@@H](CO)C(=O)N[C@@H](CCC(=O)O)C(N)=O [ScrL2] ({Biotin-Ahx}-SDPSKTSEYQPSE-NH2)

binding to UbcH10, in words (GST-UbcH10 [1]): very poor binding
Kd (GST-UbcH10 [1]): > 100 µM
Molecule: CC(C)C[C@H](NC(=O)[C@H](CCC(=O)O)NC(=O)CCCCCNC(=O)CCCC[C@@H]1SC[C@@H]2NC(=O)N[C@@H]21)C(=O)N[C@@H](CC(N)=O)C(=O)N[C@@H](CS)C(=O)N[C@@H](CC(=O)O)C(=O)N[C@H](C(=O)N[C@@H](CCC(=O)O)C(=O)N[C@H](C(=O)N[C@@H](CCC(=O)O)C(=O)NCC(=O)N[C@@H](CO)C(=O)N[C@@H](CC(=O)O)C(=O)N[C@@H](CS)C(N)=O)C(C)C)C(C)C [ScrU1] ({Biotin-Ahx}-ELNCDVEVEGSDC-NH2)

Solubility [2]: Not soluble
solubility, in words [2]: insoluble
Molecule: IHVSDQELQSA [S1, peptide from hUbA1 SCCH region (Cys-cap), residues 807-817, biotinylated derivative]

Solubility [2]: Not soluble
solubility, in words [2]: insoluble; also recorded: low solubility
Molecule: LELCCNDESGEDV [U2, peptide from hUbA1 UFD region, residues 1036-1048, biotinylated derivative]

KD (µM) (GST-UbcH10 [1]): No binding
Molecule: RDEFEGLFKQPAEN [S2, peptide corresponding to helix H19 in the hUbA1 SCCH region, residues 649-662, designed as negative control]

binding to UbcH10, in words (GST-UbcH10 [1]): low affinity
KD (µM) (GST-UbcH10 [1]): No binding
Molecule: SQDPPEKSIPI [L1, peptide from hUbA1 cross loop, residues 621-631, biotinylated derivative]

Kd (GST-UbcH10 [3]): 10 µM
B1: U1 peptide (hUbA1 UFD region, 1038-1050) (peptide)
peptide: {Biotin-Ahx}-LCCNDESGEDVEV-NH2
modifications: cysteine pairing not given here
notes: human UbA1 (E1), UFD region, residues 1038-1050; source: synthetic peptide (Fmoc solid phase, RP-HPLC purified)

Kd (GST-UbcH10 [3]): > 100 µM
B2: U1-scrambled peptide (peptide)
peptide: {Biotin-Ahx}-ELNCDVEVEGSDC-NH2
modifications: cysteine pairing not given here
notes: scrambled order of the residues of peptide U1; also called ScrU1; source: synthetic peptide (Fmoc solid phase, RP-HPLC purified)

Kd (GST-UbcH10 [3]): > 80 µM
B3: L2-scrambled peptide (peptide)
peptide: {Biotin-Ahx}-SDPSKTSEYQPSE-NH2
SMILES: C[C@@H](O)[C@H](NC(=O)[C@H](CCCCN)NC(=O)[C@H](CO)NC(=O)[C@@H]1CCCN1C(=O)[C@H](CC(=O)O)NC(=O)[C@H](CO)NC(=O)CCCCCNC(=O)CCCC[C@@H]1SC[C@@H]2NC(=O)N[C@@H]21)C(=O)N[C@@H](CO)C(=O)N[C@@H](CCC(=O)O)C(=O)N[C@@H](Cc1ccc(O)cc1)C(=O)N[C@@H](CCC(N)=O)C(=O)N1CCC[C@H]1C(=O)N[C@@H](CO)C(=O)N[C@@H](CCC(=O)O)C(N)=O
notes: scrambled order of the residues of peptide L2; also called ScrL2; source: synthetic peptide (Fmoc solid phase, RP-HPLC purified)

Kd (GST-UbcH10 [3]): 20 µM
B4: L2 peptide (hUbA1 cross loop, 615-627) (peptide)
peptide: {Biotin-Ahx}-TESYSSSQDPPEK-NH2
SMILES: C[C@@H](O)[C@H](NC(=O)CCCCCNC(=O)CCCC[C@@H]1SC[C@@H]2NC(=O)N[C@@H]21)C(=O)N[C@@H](CCC(=O)O)C(=O)N[C@@H](CO)C(=O)N[C@@H](Cc1ccc(O)cc1)C(=O)N[C@@H](CO)C(=O)N[C@@H](CO)C(=O)N[C@@H](CO)C(=O)N[C@@H](CCC(N)=O)C(=O)N[C@@H](CC(=O)O)C(=O)N1CCC[C@H]1C(=O)N1CCC[C@H]1C(=O)N[C@@H](CCC(=O)O)C(=O)N[C@@H](CCCCN)C(N)=O
notes: human UbA1 (E1), cross loop region, residues 615-627; source: synthetic peptide (Fmoc solid phase, RP-HPLC purified)

— article PMC4223017, “Structural Model of the hUbA1-UbcH10 Quaternary Complex: In Silico and Experimental Analysis of the Protein-Protein Interactions between E1, E2 and Ubiquitin” (PLoS ONE, 2014)
